*1 amine or outer side, *2 acyl side, *3 side chain or, on linkers, in order; H or OH if unused. Where a SMILES comes first, the peptide text is derived from it. Side-chain parts run from the residue outwards. The star is where a group is joined. C16 diacid = O=C(O)CCCCCCCCCCCCCCC(=O)*; γGlu = O=C(O)[C@H](CCC(=O)[*:2])N[*:1]; AEEA = NCCOCCOCC(=O)O
Columns and labels:
Assay type in all cases: cell-based
human GIP receptor [1] = molecular target: T1, human GIP receptor (Homo sapiens, UniProt P48546); experiment: cAMP antagonism (CisBio cAMP Dynamic 2 HTRF assay); design: pCMV-Script vector; details: Table 1C, CisBio, HEK-293 cells; for IC50: cAMP antagonism, nM (IC50), agonist GIP1-42 at EC50
T1 sequence (P48546 22-466): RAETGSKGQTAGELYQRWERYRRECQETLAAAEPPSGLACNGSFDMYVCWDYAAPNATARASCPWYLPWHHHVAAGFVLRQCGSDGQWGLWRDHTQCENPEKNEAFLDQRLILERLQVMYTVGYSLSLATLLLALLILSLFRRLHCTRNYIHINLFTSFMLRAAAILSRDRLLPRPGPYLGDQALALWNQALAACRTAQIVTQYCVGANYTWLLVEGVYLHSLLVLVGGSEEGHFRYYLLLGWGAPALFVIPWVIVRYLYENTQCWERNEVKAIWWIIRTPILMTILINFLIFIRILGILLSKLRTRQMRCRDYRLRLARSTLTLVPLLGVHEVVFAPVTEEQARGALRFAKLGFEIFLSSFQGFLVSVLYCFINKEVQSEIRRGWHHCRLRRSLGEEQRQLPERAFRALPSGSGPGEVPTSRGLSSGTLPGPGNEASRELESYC
Method: The in vitro functional activity of compounds towards human GIP receptor can also be determined in HEK-293 cells transiently expressing the receptor. On the day of the assay, cells were resuspended in HBSS buffer (Gibco, 14025-50) supplemented with 20 mM HEPES (Gibco, 15630-106), 0,1% Pluronic F-68 (Gibco, 24040-032) and 0,1% casein (Sigma, C4765), and plated in 384-well plates at a density of 5000 cells/well. The GIP peptide analogues of the present disclosure were diluted in HBSS buffer supplemented with 20 mM HEPES, 0,1% pluronic, 0,1% casein and 500 uM IBMX. […] The resulting decrease in intracellular cAMP was quantitatively determined using the CisBio cAMP Dynamic 2 HTRF Assay Kit. The assay is based on a competition between native cAMP produced by cells and cAMP labeled with the dye d2 for binding to a cryptate labeled antibody. The specific signal (i.e. energy transfer signal) is inversely proportional to the concentration of cAMP in the sample.
The cAMP-d2 conjugate and the antibody anti-cAMP-Cryptate, both diluted in lysis buffer provided in the kit, were added to the cells according to the manufacturer's protocol. The resulting competitive assay was incubated for 60 minutes at room temperature, and the signal was detected by using a PerkinElmer Envision® instrument with excitation at 320 nm and emission at 665 nm and 620 nm. The HTRF ratio (emission at 665 nm/620 nm*10,000) is inversely proportional to the amount of cAMP present and is converted to nM cAMP per well using a cAMP standard curve. The dose-response curves were fitted using the non-linear regression analysis (four-logistic parameter equation) in GraphPad Prism, whereby pIC50 values were estimated.

human GIP receptor [2] = molecular target: T1, human GIP receptor; experiment: cAMP accumulation, antagonism (DiscoveRx HitHunter cAMP XS assay); design: host or cells: COS-7 (transient, calcium phosphate; pCMV-Script vector)
Method: (§1) Transient transfected COS-7 cells expressing the human GIP receptor were seeded in white 96-well plates with a density of 3.5*10^4/well. The day after, the cells were washed twice with Hepes buffered saline (HBS) buffer and incubated with HBS and 1 mM 3-isobutyl-1-methylxanthine (IBMX) for 30 min at 37° C. To test for agonistic properties, ligands were added and incubated for 30 min at 37° C. In order to test for antagonistic properties, the cells were preincubated with the antagonists for 10 min prior to the addition of the agonist and subsequent incubated for 20 additional min. The HitHunter™ cAMP XS assay (DiscoveRx) was carried out according to the manufacturer's instructions.
(§2) In order to develop a GIP receptor antagonist with improved antagonistic properties, individual amino acid substitutions were conducted on GIP(3-30)NH2 and in particular at positions: 16, 18, 30 or 3, 16, 18, 30. The obtained peptides were lipidated at position 18 directly or via a linker. Both the agonistic and antagonistic profiles of the compounds were tested in cAMP accumulation experiments done in transiently transfected COS-7 cells expressing the human GIP receptor. To investigate if these mutated analogues still retained their antagonistic properties, their ability to inhibit a GIP-mediated cAMP response corresponding to 50-80% of maximum activation was examined.

human GIP receptor [3] = molecular target: T1, human GIP receptor; experiment: cAMP agonism (CisBio cAMP Dynamic 2 HTRF assay); details: HEK293, read-out: cAMP agonism, % Efficacy, Table 1C, HEK-293 cells
Method: To test for agonistic properties at the GIP receptor, compounds were diluted and added to cells as described above and incubated for 30 min at 37° C. The resulting increase in intracellular cAMP was determined using the CisBio cAMP Dynamic 2 HTRF Assay Kit as described above.

human GIP receptor [4] = molecular target: T1, human GIP receptor; experiment: cAMP accumulation, agonism (DiscoveRx HitHunter cAMP XS assay); design: host or cells: COS-7 (transient, calcium phosphate; pCMV-Script vector); details: for Emax: COS-7, read-out: cAMP agonism, Emax
Method: as §1, §2

[5] = cAMP antagonism, nM (IC50), Table 1B, DiscoveRx, transiently transfected COS-7 cells

Structure (SMILES)	cAMP antagonism, % inhib (human GIP receptor [1]) [%]	IC50 (human GIP receptor [1]) [nM]	IC50 (human GIP receptor [2]; [5]) [nM]	Emax (human GIP receptor [3]) [%]	Emax (human GIP receptor [4]) [%]	IC50 (human GIP receptor [2]; IC50-value (GIPR antagonism), Examples 1 and 2, values of Tables 1B and 2) [nM]	cAMP antagonism, % inhib (human GIP receptor [2]; Table 1B, DiscoveRx, COS-7 cells, % inhibition of Emax) [%]	cAMP agonism, Emax (human GIP receptor [4]; Table 1B, DiscoveRx, COS-7 cells)
CC[C@H](C)[C@H](NC(=O)[C@H](CO)NC(=O)[C@H](Cc1ccc(O)cc1)NC(=O)[C@H](CC(=O)O)NC(=O)[C@H](CO)NC(=O)[C@@H](NC(=O)[C@H](Cc1ccccc1)NC(=O)[C@@H](NC(=O)CNC(=O)[C@@H](N)CO)[C@@H](C)O)[C@@H](C)CC)C(=O)N[C@@H](C)C(=O)N[C@@H](CCSC)C(=O)N[C@@H](CC(=O)O)C(=O)N[C@@H](CCCNC(=N)N)C(=O)N[C@H](C(=O)N[C@@H](CCCCNC(=O)CCCCCCCCCCCCCCC(=O)O)C(=O)N[C@@H](CCC(N)=O)C(=O)N[C@@H](CCC(N)=O)C(=O)N[C@@H](CC(=O)O)C(=O)N[C@@H](Cc1ccccc1)C(=O)N[C@H](C(=O)N[C@@H](CC(N)=O)C(=O)N[C@@H](Cc1c[nH]c2ccccc12)C(=O)N[C@@H](CC(C)C)C(=O)N[C@@H](CC(C)C)C(=O)N[C@@H](C)C(=O)N[C@@H](CCC(N)=O)C(=O)N[C@@H](CCCNC(=N)N)C(=O)O)C(C)C)[C@@H](C)CC [AT259] (H-SGTFISDYSIAMDRIK(C16 diacid)QQDFVNWLLAQR-OH; N-terminus assumed)	72	58.4	19	9	20			
CC[C@H](C)[C@H](NC(=O)[C@H](CO)NC(=O)[C@H](Cc1ccc(O)cc1)NC(=O)[C@H](CC(=O)O)NC(=O)[C@H](CO)NC(=O)[C@@H](NC(=O)[C@H](Cc1ccccc1)NC(=O)[C@@H](NC(=O)CNC(=O)[C@@H](N)CCC(=O)O)[C@@H](C)O)[C@@H](C)CC)C(=O)N[C@@H](C)C(=O)N[C@@H](CCSC)C(=O)N[C@@H](CC(=O)O)C(=O)N[C@@H](CCCNC(=N)N)C(=O)N[C@H](C(=O)N[C@@H](CCCCNC(=O)COCCOCCNC(=O)CC[C@H](NC(=O)CCCCCCCCCCCCCCC(=O)O)C(=O)O)C(=O)N[C@@H](CCC(N)=O)C(=O)N[C@@H](CCC(N)=O)C(=O)N[C@@H](CC(=O)O)C(=O)N[C@@H](Cc1ccccc1)C(=O)N[C@H](C(=O)N[C@@H](CC(N)=O)C(=O)N[C@@H](Cc1c[nH]c2ccccc12)C(=O)N[C@@H](CC(C)C)C(=O)N[C@@H](CC(C)C)C(=O)N[C@@H](C)C(=O)N[C@@H](CCC(N)=O)C(=O)N[C@@H](CCCNC(=N)N)C(N)=O)C(C)C)[C@@H](C)CC [AT373] (HELM PEPTIDE1{E.G.T.F.I.S.D.Y.S.I.A.M.D.R.I.K.Q.Q.D.F.V.N.W.L.L.A.Q.R.[am]}|PEPTIDE2{[O=C(O)CCCCCCCCCCCCCCC(=O)[*:2]].[gGlu].[O=C(COCCOCCN[*:1])[*:2]]}$PEPTIDE1,PEPTIDE2,16:R3-3:R2$$$V2.0; N-terminus assumed)	91	12.6		0		10	94	No Agonism
CC[C@H](C)[C@H](NC(=O)[C@H](CO)NC(=O)[C@H](Cc1ccc(O)cc1)NC(=O)[C@H](CC(=O)O)NC(=O)[C@H](CO)NC(=O)[C@@H](NC(=O)[C@H](Cc1ccccc1)NC(=O)[C@@H](NC(=O)CNC(=O)CN)[C@@H](C)O)[C@@H](C)CC)C(=O)N[C@@H](C)C(=O)N[C@@H](CCSC)C(=O)N[C@@H](CC(=O)O)C(=O)N[C@@H](CCCNC(=N)N)C(=O)N[C@H](C(=O)N[C@@H](CCCCNC(=O)COCCOCCNC(=O)COCCOCCNC(=O)CC[C@H](NC(=O)CCCCCCCCCCCCCCC(=O)O)C(=O)O)C(=O)N[C@@H](CCC(N)=O)C(=O)N[C@@H](CCC(N)=O)C(=O)N[C@@H](CC(=O)O)C(=O)N[C@@H](Cc1ccccc1)C(=O)N[C@H](C(=O)N[C@@H](CC(N)=O)C(=O)N[C@@H](Cc1c[nH]c2ccccc12)C(=O)N[C@@H](CC(C)C)C(=O)N[C@@H](CC(C)C)C(=O)N[C@@H](C)C(=O)N[C@@H](CCC(N)=O)C(=O)N[C@@H](CCCNC(=N)N)C(=O)O)C(C)C)[C@@H](C)CC [AT275] (H-GGTFISDYSIAMDRIK([AEEA-AEEA-γGlu-C16 diacid])QQDFVNWLLAQR-OH; N-terminus assumed)	66	126	43	5	5			
CC[C@H](C)[C@H](NC(=O)[C@H](CO)NC(=O)[C@H](Cc1ccc(O)cc1)NC(=O)[C@H](CC(=O)O)NC(=O)[C@H](CO)NC(=O)[C@@H](NC(=O)[C@H](Cc1ccccc1)NC(=O)[C@@H](NC(=O)CNC(=O)CN)[C@@H](C)O)[C@@H](C)CC)C(=O)N[C@@H](C)C(=O)N[C@@H](CCSC)C(=O)N[C@@H](CC(=O)O)C(=O)N[C@@H](CCCNC(=N)N)C(=O)N[C@H](C(=O)N[C@@H](CCCCNC(=O)COCCOCCNC(=O)CC[C@H](NC(=O)CCCCCCCCCCCCCCC(=O)O)C(=O)O)C(=O)N[C@@H](CCC(N)=O)C(=O)N[C@@H](CCC(N)=O)C(=O)N[C@@H](CC(=O)O)C(=O)N[C@@H](Cc1ccccc1)C(=O)N[C@H](C(=O)N[C@@H](CC(N)=O)C(=O)N[C@@H](Cc1c[nH]c2ccccc12)C(=O)N[C@@H](CC(C)C)C(=O)N[C@@H](CC(C)C)C(=O)N[C@@H](C)C(=O)N[C@@H](CCC(N)=O)C(=O)N[C@@H](CCCNC(=N)N)C(=O)O)C(C)C)[C@@H](C)CC [AT269] (HELM PEPTIDE1{G.G.T.F.I.S.D.Y.S.I.A.M.D.R.I.K.Q.Q.D.F.V.N.W.L.L.A.Q.R}|PEPTIDE2{[O=C(O)CCCCCCCCCCCCCCC(=O)[*:2]].[gGlu].[O=C(COCCOCCN[*:1])[*:2]]}$PEPTIDE1,PEPTIDE2,16:R3-3:R2$$$V2.0; N-terminus assumed)			91	0	12			
CC[C@H](C)[C@H](NC(=O)[C@H](CO)NC(=O)[C@H](Cc1ccc(O)cc1)NC(=O)[C@H](CC(=O)O)NC(=O)[C@H](CO)NC(=O)[C@@H](NC(=O)[C@H](Cc1ccccc1)NC(=O)[C@@H](NC(=O)CNC(=O)[C@@H]1CCCN1)[C@@H](C)O)[C@@H](C)CC)C(=O)N[C@@H](C)C(=O)N[C@@H](CCSC)C(=O)N[C@@H](CC(=O)O)C(=O)N[C@@H](CCCNC(=N)N)C(=O)N[C@H](C(=O)N[C@@H](CCCCNC(=O)CC[C@H](NC(=O)CCCCCCCCCCCCCCC(=O)O)C(=O)O)C(=O)N[C@@H](CCC(N)=O)C(=O)N[C@@H](CCC(N)=O)C(=O)N[C@@H](CC(=O)O)C(=O)N[C@@H](Cc1ccccc1)C(=O)N[C@H](C(=O)N[C@@H](CC(N)=O)C(=O)N[C@@H](Cc1c[nH]c2ccccc12)C(=O)N[C@@H](CC(C)C)C(=O)N[C@@H](CC(C)C)C(=O)N[C@@H](C)C(=O)N[C@@H](CCC(N)=O)C(=O)N[C@@H](CCCNC(=N)N)C(=O)O)C(C)C)[C@@H](C)CC [AT267] (HELM PEPTIDE1{P.G.T.F.I.S.D.Y.S.I.A.M.D.R.I.K.Q.Q.D.F.V.N.W.L.L.A.Q.R}|PEPTIDE2{[O=C(O)CCCCCCCCCCCCCCC(=O)[*:2]].[gGlu]}$PEPTIDE1,PEPTIDE2,16:R3-2:R2$$$V2.0; N-terminus assumed)	52			4	16			

Source: patent publication US12187773B2, “Modified GIP peptide analogues” (Antag Therapeutics ApS, priority 2018, dated 2025)
